Earlier results as cited in patent US20130084245A1, “PET MONITORING OF A-BETA-DIRECTED IMMUNOTHERAPY” (Wyeth LLC, priority 2010, published 2013).

Assays:
[1] = molecular target: T1, aggregated fibrillar deposits of the Aβ peptide (Homo sapiens, UniProt P05067)
T1 construct: aggregated fibrillar deposits of the Aβ peptide

Aβ deposits [2] = molecular target: T2, Aβ deposits (Homo sapiens, UniProt P05067); conditions: areas of brain association cortex targeted by Aβ deposits
T2 construct: aggregated fibrillar deposits of the Aβ peptide
T2 sequence (P05067 672-713 limits assumed): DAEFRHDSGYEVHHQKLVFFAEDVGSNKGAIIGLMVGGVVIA

Aβ deposits [3] = molecular target: T2, Aβ deposits; conditions: preliminary study

T1 sequence (P05067 672-713 limits assumed): as above

| Compound | Affinity for aggregated fibrillar deposits of the Aβ peptide [1] | Selectivity of binding to postmortem human brain ([1]; low nanomolar concentrations typically used in PET studies) | Retention in AD patients compared with controls (Aβ deposits [2]) | Performance as PET ligand in AD and controls (Aβ deposits [3]) |
| --- | --- | --- | --- | --- |
| CNc1ccc(-c2nc3ccc(O)cc3s2)cc1 [PiB, 2-(4′-methylaminophenyl)-6-hydroxybenzothiazole] | low nanomolar affinity | selective for fibrillar Aβ deposits | approximately two-fold | – |
| CNc1ccc(/C=C/c2ccc(OCCOCCOCC[18F])cc2)cc1 [^18F-BAY94-9172] | – | – | – | performed comparably to ^11C-PIB |
